# Laboratory results from patent US5300629A, “Bactericidal and/or bacteriostatic peptides isolated from hemolymph of honeybees” (Plant Genetic Systems, N.V., priority 1987, dated 1994).
# Where a SMILES comes first, the peptide text is derived from it.
# Legend:
# Type in all cases: cell-based
# [1] = system: protoplasts derived from Lactobacillus sp; assay: Protoplast regeneration, agar diffusion assay; conditions: Lactobacillus protoplasts on RM MRS medium, 4 μg/well
# Procedure: Protoplasts were made using lysozyme concentrations ranging between 0 and 5 mg/ml and then incubated for 1 hour in the presence of Apid Ia (concentrations ranging between 0-10 μg/ml) . Cells were pelleted, resuspended and plated out on RM MRS. To estimate the ratio of protoplasts/normal cells, controls were plated out on MRS without the stabilizing sucrose. This prevented the regenerating of the protoplasts and enabled the deduction of the number of normal cells. To evaluate the regeneration capability of the said protoplasts in the presence of Apid Ia an agar diffusion assay was performed : the protoplasts were applied on RM MRS medium, wells were made and filled up with an apidaecin solution (4 μg/well).
# Salmonella Newport CD 94 = assay: Minimal inhibitory concentration in liquid culture; conditions: 200 μl rich medium, 10^4 log-phase bacteria
# [2] = system: Xanthomonas campestris pv. campestris A 902; assay: Minimal inhibitory concentration in liquid culture; conditions: 200 μl rich medium, 10^4 log-phase bacteria, + = no inhibition at maximal value
# [3] = system: Agrobactierium tumefaciens DSM 3129; assay: Minimal inhibitory concentration in liquid culture; conditions: 200 μl rich medium, 10^4 log-phase bacteria
# Shigella flexneri CP 87 = assay: Minimal inhibitory concentration in liquid culture; conditions: 200 μl rich medium, 10^4 log-phase bacteria
# Procedure: (§1) In addition the exact concentration was determined precisely by amino-acid analysis and an equal sample of natural Bee 6b was prepared, allowing to compare the bactericidal activity of both natural and synthetic apidaecins by means of growth inhibition assays in liquid cultures (see mat & Meth.). The minimal inhibitory concentrations (μg/ml) were determined in liquid culture : 200 μl of a rich medium (trypticase soy broth or nutrient broth) was inoculated with 10^4 log-phase bacteria. Peptide concentrations ranged between 0 and 200 μg/ml. The values express μg/ml; when no inhibition was noticed the maximal values are given (+200 μg/ml or +50 μg/ml). All peptides were chemically synthesized, except for bee 6b which is purified from bee lymph.
# [4] = system: Xanthomonas campestris pv. vesicatoria LMG 905; assay: Minimal inhibitory concentration in liquid culture; conditions: 200 μl rich medium, 10^4 log-phase bacteria, + = no inhibition at maximal value
# Procedure: as §1
# [5] = system: Corynebacterium michiganense pv. michiganense NCPPB 1573; assay: Minimal inhibitory concentration in liquid culture; conditions: 200 μl rich medium, 10^4 log-phase bacteria, + = no inhibition at maximal value
# Procedure: as §1
# [6] = system: Corynebacterium insidiosum NCPPB 1109; assay: Minimal inhibitory concentration in liquid culture; conditions: 200 μl rich medium, 10^4 log-phase bacteria
# Procedure: as §1
# [7] = system: Erwinia salicis NCPPB 2530; assay: Minimal inhibitory concentration in liquid culture; conditions: 200 μl rich medium, 10^4 log-phase bacteria
# [8] = system: Pseudomonas syringae pv. tomato NCPPB 1106; assay: Inhibition zone assay; conditions: * synthetic ApidIa and heattreated immune lymph instead of Bee6 and native immune lymph
# E. coli NCTC 9001 [9] = assay: Bactericidal activity, method not stated; conditions: lyophilized apidaecins resuspended in PBS
# [10] = system: Escherichia coli NCTC 9001; assay: Minimal inhibitory concentration in liquid culture; conditions: 200 μl rich medium, 10^4 log-phase bacteria
# [11] = system: Rhizobium meliloti ZB 314; assay: Minimal inhibitory concentration in liquid culture; conditions: 200 μl rich medium, 10^4 log-phase bacteria
# [12] = system: Pseudomonas syringae pv. maculicola NCPPB 1776; assay: Minimal inhibitory concentration in liquid culture; conditions: 200 μl rich medium, 10^4 log-phase bacteria
# [13] = system: Erwinia carotovora var atroseptica LMG 2385; assay: Minimal inhibitory concentration in liquid culture; conditions: 200 μl rich medium, 10^4 log-phase bacteria
# [14] = system: Pseudomonas syringae pv. maculicola NCPPB 1776; assay: Inhibition zone assay; conditions: * synthetic ApidIa and heattreated immune lymph instead of Bee6 and native immune lymph
# [15] = system: Pseudomonas solanacearum ATCC 11696; set-up: key: --: "-" means that no inhibition has been found; conditions: * synthetic ApidIa and heattreated immune lymph instead of Bee6 and native immune lymph
# [16] = system: Xanthomonas campestris pv. campestris A 902; assay: Inhibition zone assay; set-up: key: --: "-" means that no inhibition has been found; conditions: * synthetic ApidIa and heattreated immune lymph instead of Bee6 and native immune lymph
# [17] = system: Pseudomonas syringae pv. tomato NCPPB 1106; assay: Minimal inhibitory concentration in liquid culture; conditions: 200 μl rich medium, 10^4 log-phase bacteria
# [18] = system: Pseudomonas solanacearum ATCC 11696; conditions: 200 μl rich medium, 10^4 log-phase bacteria
# [19] = system: Pseudomonas syringae pv. tabaci NCPPB 1237; assay: Inhibition zone assay; conditions: * synthetic ApidIa and heattreated immune lymph instead of Bee6 and native immune lymph
# [20] = system: Yersinia enterocolitica PGS C-1106; assay: Inhibition zone assay; conditions: * synthetic ApidIa and heattreated immune lymph instead of Bee6 and native immune lymph
# [21] = system: Erwinia carotovora var carotovora NCPPB 312; assay: Minimal inhibitory concentration in liquid culture; conditions: 200 μl rich medium, 10^4 log-phase bacteria
# [22] = system: Citrobacter freundii ATCC 8090; assay: Minimal inhibitory concentration in liquid culture; conditions: 200 μl rich medium, 10^4 log-phase bacteria
# [23] = system: Pseudomonas syringae pv. tabaci NCPPB 1237; assay: Minimal inhibitory concentration in liquid culture; conditions: 200 μl rich medium, 10^4 log-phase bacteria
# [24] = system: Salmonella typhimurium ATCC 23565; assay: Minimal inhibitory concentration in liquid culture; conditions: 200 μl rich medium, 10^4 log-phase bacteria
# E. coli NCTC 9001 [25] = conditions: E. coli NCTC 9001; 4 μg/well
# Procedure: Whole lymph or purified components, resuspended in PBS to a final volume equal to the starting material (heated lymph), was applied in 3 mm wells on agar plates seeded with the test organisms. Antibacterial activity was determined by measuring the growth-inhibition zones (in mm).
# Test conditions: agar inhibition zone obtained with 10 namomole apidaecin, resuspended in 20 μl H2 O/well.
# [26] = system: Bacillus megaterium QB 1551; assay: Minimal inhibitory concentration in liquid culture; conditions: 200 μl rich medium, 10^4 log-phase bacteria, + = no inhibition at maximal value
smiles,measurement,setting,value
CC[C@H](C)[C@H](NC(=O)[C@H](CCCNC(=N)N)NC(=O)[C@@H]1CCCN1C(=O)[C@H](Cc1c[nH]cn1)NC(=O)[C@@H]1CCCN1C(=O)[C@@H]1CCCN1C(=O)[C@H](CCCNC(=N)N)NC(=O)[C@@H]1CCCN1C(=O)[C@H](CCC(N)=O)NC(=O)[C@@H]1CCCN1C(=O)[C@@H](NC(=O)[C@H](Cc1ccc(O)cc1)NC(=O)[C@@H](NC(=O)[C@@H]1CCCN1C(=O)[C@H](CCCNC(=N)N)NC(=O)[C@H](CC(N)=O)NC(=O)[C@H](CC(N)=O)NC(=O)CN)C(C)C)[C@@H](C)CC)C(=O)O [Apid Ia] (H-GNNRPVYIPQPRPPHPRI-OH),"inhibition zone, regeneration of protoplasts",[1],No inhibition zone was noticed
same,minimal inhibitory concentration,Salmonella Newport CD 94,0.2 µg/mL
same,minimal inhibitory concentration,[2],> 50 µg/mL
same,minimal inhibitory concentration,[3],0.2 µg/mL
same,minimal inhibitory concentration,Shigella flexneri CP 87,0.1 µg/mL
same,minimal inhibitory concentration,[4],> 50 µg/mL
same,minimal inhibitory concentration,[5],> 50 µg/mL
same,minimal inhibitory concentration,[6],50 µg/mL
same,minimal inhibitory concentration,[7],0.02 µg/mL
same,diameter of growth-inhibition zone,[8],9 mm
same,bactericidal activity,E. coli NCTC 9001 [9],possessed a bactericidal activity
same,minimal inhibitory concentration,[10],0.1 µg/mL
same,minimal inhibitory concentration,[11],0.1 µg/mL
same,minimal inhibitory concentration,[12],0.5 µg/mL
same,minimal inhibitory concentration,[13],1 µg/mL
same,diameter of growth-inhibition zone,[14],8 mm
same,diameter of growth-inhibition zone,[15],--
same,diameter of growth-inhibition zone,[16],--
same,minimal inhibitory concentration,[17],0.2 µg/mL
same,minimal inhibitory concentration,[18],25 µg/mL
same,diameter of growth-inhibition zone,[19],7 mm
same,diameter of growth-inhibition zone,[20],9 mm
same,minimal inhibitory concentration,[21],1 µg/mL
same,minimal inhibitory concentration,[22],0.15 µg/mL
same,minimal inhibitory concentration,[23],0.5 µg/mL
same,minimal inhibitory concentration,[24],0.1 µg/mL
same,"inhibition zone, positive control of the protoplast test",E. coli NCTC 9001 [25],clear inhibition zone
same,minimal inhibitory concentration,[26],150 µg/mL
